Assay results reported in publication PMC7956560, “New 3-Aryl-2-(2-thienyl)acrylonitriles with High Activity Against Hepatoma Cells” (International Journal of Molecular Sciences, 2021).

What was measured:
HepG2 cells [1] = test: Colony-formation assay; type: cell-based, human
Experimental: HepG2 cells were seeded in 6-well plates at a density of 300 cells/well and allowed to attach overnight. […] Then, the plates were washed twice with PBS, fixed with 4% formaldehyde for 1 h, and stained with 0.5% crystal violet for 3 min. Excessive crystal violet was washed out and the colonies were counted under the microscope. A colony was defined as a cell aggregate with 50 or more cells. Representative images were taken with a kappa digital camera system (Kappa Optronics GmbH, Germany). A total of n = 3 experiments were performed, and significance was tested by one-way ANOVA assays.

HepG2 cells [2] = test: LDH release assay (unspecific cytotoxicity); type: cell-based, human; details: HepG2, 0.5 and 10 µM, 12 or 24 h
Experimental: Unspecific cytotoxicity induced by treatment with 0.5 µM and 10 µM of 1a, 1b, 1c and sorafenib (LC Laboratories, Woburn, MA, USA) was determined by measuring the release of lactate dehydrogenase (LDH) from HepG2 cells into the supernatant after 12 and 24 h (Cytotoxicity Detection KitPLUS LDH, Roche Diagnostics GmbH, Mannheim, Germany). The supernatant of treated samples was collected, and adherent non-treated cells were lysed with 2% Triton X-100 for 10 min to determine the maximum LDH release. All samples were mixed with catalyst and dye solution for 30 min, resulting in the formation of formazan dye proportional to LDH enzyme activity. The absorbance was measured at 490/630 nm using an ELISA reader (Dynex Technologies, Denkendorf, Germany) and cytotoxicity was determined by subtracting the percentage of LDH release under control conditions of those from treated samples. Experiments were performed in duplicate and data are given as mean percentage changes ± SD as compared to controls of n = 3 experiments.

[3] = system: panel of 43 human protein kinases; test: Enzymatic kinase panel screening; type: biochemical; details: 10 µM compound
Experimental: The kinase inhibiting potency of compound 1a, 1b and 1c (10 µM) was screened in a cell-free kinase assay, which consisted of a custom panel of 43 human protein kinases for 1c (listed in Figure 5A), as well as a subpanel of six kinases for 1a and 1b (Figure 5B). The initial panel was chosen to screen the lead compound 1c based on the union of two strategies. A total of 29 kinases were selected based on the correlated results of three in silico target prediction methods including structure- as well as ligand-based techniques and 20 kinases because of their relevance for HCC (note that six kinases were part of both strategies).
The assay was performed by Eurofins KinaseProfilerTM service (Eurofins, France) and the determination of enzymatic activity was assessed as previously described. Additionally, an IC50 determination of compound 1c against the VEGFR-2 was performed with a concentration range of 0.003 to 30 µM.

Compound: COc1ccc(C=C(C#N)c2cccs2)cc1O [Compound 1c, 2-[1-Cyano-2-(3-hydroxy-4-methoxyphenyl)-(E)-ethenyl)]-thiophene]
- effect on HepG2 colony formation (in words) (HepG2 cells [1]; 1, 5, 10 µM, 14 days): significantly inhibited HepG2 colony formation
- inhibition of colony formation (HepG2 cells [1]; HepG2, after two weeks): ~100%
- LDH release / unspecific cytotoxicity (in words) (HepG2 cells [2]): do not exert considerable unspecific cytotoxicity
- number of the 43 kinase targets inhibited by more than 50% [3]: six
